# Key:
# Type in all cases: in vivo
# Lolium multiflorum Lam. = experiment: Test Example 5: herbicidal effect by foliage application, plastic box (symbol K); settings: 320 g/ha, 3 weeks after application
# Outline: (§1)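 After sowing into sterilized diluvial soil and growing two weeks under glass at 25° C. to 30° C., seedlings receive a uniform foliar spray of diluted emulsion. Damage is judged visually three weeks on.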
# rapeseed = experiment: Test Example 4: effect on crop by soil treatment (symbol g); settings: application herbicide amount 320 g/ha
# Outline: (§2)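 The test used sterilized diluvial soil. Seed was set down in spots and overlaid with about 1.5 cm of soil before growth in a greenhouse kept at 25° C. to 30° C.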
# rice = experiment: Test Example 4: effect on crop by soil treatment (symbol b); settings: application herbicide amount 320 g/ha
# Outline: as §2
# corn [1] = experiment: Test Example 4: effect on crop by soil treatment (symbol c); settings: application herbicide amount 320 g/ha
# Outline: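 Steps: fill box with sterilized diluvial soil; sow seed spot-like; cover with ~1.5 cm soil; grow in greenhouse (25° C. to 30° C.).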
# Scirpus juncoides [2] = experiment: Test Example 1: herbicidal activity, application before weed generation in submerged conditions (symbol B); settings: application herbicide amount 320 g/ha
# Outline: (§3)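 0–5 visual score, 3 wk post-application. Submerged pots, alluvial soil, water 4 cm; seeds sown mixed, rice at 2.5 leaves transplanted. Emulsion diluted to predetermined dose, applied to water surface at sowing. 25–30 °C greenhouse.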
# Galium spurium = experiment: Test Example 5: herbicidal effect by foliage application, plastic box (symbol Q); settings: 320 g/ha, 3 weeks after application
# Outline: as §1
# soybean = experiment: Test Example 5: effect on crop by foliage application, plastic box (symbol d); settings: 320 g/ha, 3 weeks after application
# Outline: (§4)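 Foliage-application test plants come from spot sowing in sterilized diluvial soil under a soil layer of about 1.5 cm, grown at 25° C. to 30° C. in a greenhouse.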
# Monochoria vaginalis = experiment: Test Example 1: herbicidal activity, application before weed generation in submerged conditions (symbol C); settings: application herbicide amount 320 g/ha
# Outline: as §3
# Chenopodium album = experiment: Test Example 5: herbicidal effect by foliage application, plastic box (symbol O); settings: 320 g/ha, 3 weeks after application
# Outline: as §1
# Scirpus juncoides [3] = experiment: Test Example 2: herbicidal activity, application during weed generation in submerged conditions (symbol B); settings: Table 23; application herbicide amount 320 g/ha; grade 0-5 by criteria of Test Example 1
# Outline: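 Compound was applied as a water-diluted emulsion into the standing water of flooded pots (4 cm) once co-sown weeds reached one to two leaves. Greenhouse temperature was 25° C. to 30° C., soil was alluvial, and each species was rated visually after 3 weeks.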
# corn [4] = experiment: Test Example 5: effect on crop by foliage application, plastic box (symbol c); settings: 320 g/ha, 3 weeks after application
# Outline: as §4
# Digitaria ciliaris = experiment: Test Example 5: herbicidal effect by foliage application, plastic box (symbol F); settings: 320 g/ha, 3 weeks after application
# Outline: as §1
# Veronica persica = experiment: Test Example 5: herbicidal effect by foliage application, plastic box (symbol R); settings: 320 g/ha, 3 weeks after application
# Outline: as §1
# Avena fatua = experiment: Test Example 4: herbicidal effect by soil treatment (symbol I); settings: application herbicide amount 320 g/ha
# Outline: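 Seeds were sown in sterilized diluvial soil, covered with about 1.5 cm of soil, and the soil surface was sprayed with a water-diluted emulsion of the compound at a predetermined rate. Plants grew in a greenhouse at 25° C. to 30° C.; effects were scored visually 3 weeks after application.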
Compound,"K: Lolium multiflorum Lam., herbicidal effect (criteria of Test Example 1) (Lolium multiflorum Lam.)","Effect on crop grade, g: rapeseed (rapeseed)","Effect on crop grade, b: directly sowed rice plant (rice)","Effect on crop grade, c: corn (corn [1])","Herbicidal effect grade, B: Scirpus juncoides (Scirpus juncoides [2])","Q: Galium spurium, herbicidal effect (criteria of Test Example 1) (Galium spurium)","d: soybean, effect on crop (criteria of Test Example 1) (soybean)","Herbicidal effect grade, C: Monochoria vaginalis (Monochoria vaginalis)","O: Chenopodium album, herbicidal effect (criteria of Test Example 1) (Chenopodium album)","Herbicidal effect grade, B: Scirpus juncoides (Scirpus juncoides [3])","c: corn, effect on crop (criteria of Test Example 1) (corn [4])","F: Digitaria ciliaris, herbicidal effect (criteria of Test Example 1) (Digitaria ciliaris)","R: Veronica persica, herbicidal effect (criteria of Test Example 1) (Veronica persica)","Herbicidal effect grade, I: Avena fatua (Avena fatua)"
CON=C(C)CC1CC(O)=C(c2c(F)cc(-c3ccccc3)cc2OC)C1=O (stereo not drawn) [6-107],5 (Herbicidal ratio of 90% or more (almost completely withered)),4 (Herbicidal ratio of 70% or higher and lower than 90%),5 (Herbicidal ratio of 90% or more (almost completely withered)),0 (Herbicidal ratio of 5% or lower (almost no effect)),5 (Herbicidal ratio of 90% or more (almost completely withered)),5 (Herbicidal ratio of 90% or more (almost completely withered)),1 (Herbicidal ratio of 5% or higher and lower than 20%),5 (Herbicidal ratio of 90% or more (almost completely withered)),4 (Herbicidal ratio of 70% or higher and lower than 90%),5 (Herbicidal ratio of 90% or more (almost completely withered)),5 (Herbicidal ratio of 90% or more (almost completely withered)),5 (Herbicidal ratio of 90% or more (almost completely withered)),4 (Herbicidal ratio of 70% or higher and lower than 90%),3 (Herbicidal ratio of 40% or higher and lower than 70%)
CON=C(C)CC1CC(O)=C(c2c(F)cc(C)cc2OC)C1=O (stereo not drawn) [6-108],5 (Herbicidal ratio of 90% or more (almost completely withered)),4 (Herbicidal ratio of 70% or higher and lower than 90%),5 (Herbicidal ratio of 90% or more (almost completely withered)),1 (Herbicidal ratio of 5% or higher and lower than 20%),3 (Herbicidal ratio of 40% or higher and lower than 70%),3 (Herbicidal ratio of 40% or higher and lower than 70%),3 (Herbicidal ratio of 40% or higher and lower than 70%),0 (Herbicidal ratio of 5% or lower (almost no effect)),2 (Herbicidal ratio of 20% or higher and lower than 40%),1 (Herbicidal ratio of 5% or higher and lower than 20%),5 (Herbicidal ratio of 90% or more (almost completely withered)),5 (Herbicidal ratio of 90% or more (almost completely withered)),2 (Herbicidal ratio of 20% or higher and lower than 40%),3 (Herbicidal ratio of 40% or higher and lower than 70%)
CON=C(C)CC1CC(OC(=O)N(C)C)=C(c2c(C)cc(C)cc2OC)C1=O (stereo not drawn) [6-109],5 (Herbicidal ratio of 90% or more (almost completely withered)),0 (Herbicidal ratio of 5% or lower (almost no effect)),1 (Herbicidal ratio of 5% or higher and lower than 20%),0 (Herbicidal ratio of 5% or lower (almost no effect)),3 (Herbicidal ratio of 40% or higher and lower than 70%),0 (Herbicidal ratio of 5% or lower (almost no effect)),2 (Herbicidal ratio of 20% or higher and lower than 40%),3 (Herbicidal ratio of 40% or higher and lower than 70%),0 (Herbicidal ratio of 5% or lower (almost no effect)),2 (Herbicidal ratio of 20% or higher and lower than 40%),5 (Herbicidal ratio of 90% or more (almost completely withered)),5 (Herbicidal ratio of 90% or more (almost completely withered)),1 (Herbicidal ratio of 5% or higher and lower than 20%),0 (Herbicidal ratio of 5% or lower (almost no effect))
CON=C(C)CC1CC(OC(=O)N2CCCC2)=C(c2c(C)cc(C)cc2OC)C1=O (stereo not drawn) [6-110],5 (Herbicidal ratio of 90% or more (almost completely withered)),0 (Herbicidal ratio of 5% or lower (almost no effect)),0 (Herbicidal ratio of 5% or lower (almost no effect)),0 (Herbicidal ratio of 5% or lower (almost no effect)),3 (Herbicidal ratio of 40% or higher and lower than 70%),3 (Herbicidal ratio of 40% or higher and lower than 70%),2 (Herbicidal ratio of 20% or higher and lower than 40%),0 (Herbicidal ratio of 5% or lower (almost no effect)),0 (Herbicidal ratio of 5% or lower (almost no effect)),1 (Herbicidal ratio of 5% or higher and lower than 20%),5 (Herbicidal ratio of 90% or more (almost completely withered)),5 (Herbicidal ratio of 90% or more (almost completely withered)),2 (Herbicidal ratio of 20% or higher and lower than 40%),0 (Herbicidal ratio of 5% or lower (almost no effect))
CON=C(C)CC1CC(OC(=O)N2CCCCC2)=C(c2c(C)cc(C)cc2OC)C1=O (stereo not drawn) [6-111],5 (Herbicidal ratio of 90% or more (almost completely withered)),0 (Herbicidal ratio of 5% or lower (almost no effect)),1 (Herbicidal ratio of 5% or higher and lower than 20%),0 (Herbicidal ratio of 5% or lower (almost no effect)),5 (Herbicidal ratio of 90% or more (almost completely withered)),0 (Herbicidal ratio of 5% or lower (almost no effect)),1 (Herbicidal ratio of 5% or higher and lower than 20%),2 (Herbicidal ratio of 20% or higher and lower than 40%),0 (Herbicidal ratio of 5% or lower (almost no effect)),3 (Herbicidal ratio of 40% or higher and lower than 70%),5 (Herbicidal ratio of 90% or more (almost completely withered)),5 (Herbicidal ratio of 90% or more (almost completely withered)),2 (Herbicidal ratio of 20% or higher and lower than 40%),0 (Herbicidal ratio of 5% or lower (almost no effect))
CON=C(C)CC1CC(O)=C(c2c(C)cccc2C)C1=O (stereo not drawn) [6-112],5 (Herbicidal ratio of 90% or more (almost completely withered)),0 (Herbicidal ratio of 5% or lower (almost no effect)),5 (Herbicidal ratio of 90% or more (almost completely withered)),1 (Herbicidal ratio of 5% or higher and lower than 20%),0 (Herbicidal ratio of 5% or lower (almost no effect)),0 (Herbicidal ratio of 5% or lower (almost no effect)),3 (Herbicidal ratio of 40% or higher and lower than 70%),0 (Herbicidal ratio of 5% or lower (almost no effect)),0 (Herbicidal ratio of 5% or lower (almost no effect)),0 (Herbicidal ratio of 5% or lower (almost no effect)),5 (Herbicidal ratio of 90% or more (almost completely withered)),5 (Herbicidal ratio of 90% or more (almost completely withered)),1 (Herbicidal ratio of 5% or higher and lower than 20%),1 (Herbicidal ratio of 5% or higher and lower than 20%)
